Series [1] is described as follows: Thermogravimetric analysis (TGA), thermal stability. Type of series: physicochemical. The note with it: 10° C. min-1, reported at 5% weight loss. Here is the method: TGA was utilised to determine thermal stability. Initially the starting materials (LIDO, MA, SA and GMS) were analysed to deduce the degradation temperature. The excipients were exposed to a heating ramp from room temperature (circa 20° C.) to 500° C., at 10° C. min-1.
LIDO and the relevant lipids were weighed and heated at 80° C. until molten. The samples were given 24 hours to cool/solidify before they were ground using a mortar and pestle for 2 min. The resultant systems were heated at 10° C. min-1 from room temperature to 350° C. All TGA experiments were conducted in triplicates, using Perkin-Elmer Aluminum Non-Hermetic DSC pans. Nitrogen (60 mL min-1) was used as the purge gas. The degradation temperature was reported at 5% weight loss. Analysis was performed using TA Universal analysis software.
Consequently, TGA is an essential technique used to inform the suitability of these materials and processing conditions of HME. The thermal degradation temperature was reported at 5% weight loss.

For series [2] the following is noted: cited from earlier work.
The nature of series [3]: Assessment of drug loading capacity of EVA.
Series [4] is described as follows: In vivo sheep study, pharmacokinetics of lidocaine and myristic acid. As to conditions: FIG. 25.
Series [5] can be described thus: Lidocaine and myristic acid remaining post-implantation. In kind it is in vivo. As to conditions: individual sheep. How it is done:
The components of the outer coating were dissolved by sonication in dicholoromethane and the volume was then made up to 50 ml. Two ml of this solution was dried for 1 h at 50° C. and reconstituted in 100 ml methanol. The methanolic solutions were appropriately diluted in the mobile phase for assay by LCMS-MS.

Values joined by “and” are separate entries in the source; they are usually repeats but may differ in a detail not shown here. Equal entries are not always repeated. Marks after values point to notes of the source that are not given here.

For the molecule `CCCCCCCCCCCCCCCCCC(=O)OCC(O)CO` (centres unmarked) [Glycerol Monostearate], the “Mean Degradation Temperature ± SD” value in series [1] (listed as GMS) is 197.34 °C and 197.34 ± 8.23 °C. Further, in series [2], the LogP is given as 5.97.
Turning to `CCN(CC)CC(=O)Nc1c(C)cccc1C` [Lidocaine, 2-(diethyl-amino)-N-(2,6-dimethylpheny)-acetamide, reference compound], the “Lidocaine concentration at which it crystalises out” value in series [3] (in EVA 33%) is reported as more than 10%. Further, the “Lidocaine concentration over which it crystallises out” value in series [3] (solvent cast EVA film or EVA polymer implant) is reported as 9-10 % w/w. Further, the “Mean Degradation Temperature ± SD” value was determined as 164.40 ± 1.30 °C in series [1] (listed as LIDO) and 164.40 °C in series [1] (listed as lidocaine).
`CCCCCCCCCCCCCC(=O)O` [Myristic Acid]: in series [1] (listed as MA), the “Mean Degradation Temperature ± SD” value was 177.55 °C and 177.55 ± 0.82 °C. Besides, the “Concentration in peritoneal fluid compared to plasma” value in series [4] is recorded as “higher concentrations again observed in peritoneal fluid”. For the same molecule, the LogP in series [2] was 5.37. For the same molecule, the “Myristic acid % Remaining” value is 10.04 ± 1.82% and 16.91 ± 6.77% and 11.21 ± 0.98% in series [5] (in co-extrudate after 3 days implantation, mean ± SD n=3); <4.00* % in series [5] (in co-extrudate after 7 days implantation, listed as Myristic acid); “too low to quantify” in series [5] (in co-extrudate after 7 days implantation, listed as myristic acid).
Regarding `CCCCCCCCCCCCCCCCCC(=O)O` [Stearic Acid], the “Mean Degradation Temperature ± SD” value in series [1] (listed as SA) was 201.75 °C and 201.75 ± 4.12 °C. The LogP in series [2] is on record as 7.15.

As usually defined, the LogP is the decadic logarithm of the partition coefficient of the neutral form, usually between octanol and water.

Source of the values: patent US20230036339A1, “BIOACTIVE IMPLANTS FOR DRUG DELIVERY” (The Queen's University of Belfast, priority 2019, published 2023).
